Results on 11 molecules are retold here after ChEMBL document CHEMBL5291721, “A preclinical secondary pharmacology resource illuminates target-adverse drug reaction associations of marketed drugs” (Nat Commun, 2023).

One test concerns the target Acetylcholinesterase (Homo sapiens, UniProt P22303). Type of test: functional.
The target in test [1] is T1, Alpha-2A adrenergic receptor (Homo sapiens, UniProt P08913).
T1 sequence (P08913 whole entry): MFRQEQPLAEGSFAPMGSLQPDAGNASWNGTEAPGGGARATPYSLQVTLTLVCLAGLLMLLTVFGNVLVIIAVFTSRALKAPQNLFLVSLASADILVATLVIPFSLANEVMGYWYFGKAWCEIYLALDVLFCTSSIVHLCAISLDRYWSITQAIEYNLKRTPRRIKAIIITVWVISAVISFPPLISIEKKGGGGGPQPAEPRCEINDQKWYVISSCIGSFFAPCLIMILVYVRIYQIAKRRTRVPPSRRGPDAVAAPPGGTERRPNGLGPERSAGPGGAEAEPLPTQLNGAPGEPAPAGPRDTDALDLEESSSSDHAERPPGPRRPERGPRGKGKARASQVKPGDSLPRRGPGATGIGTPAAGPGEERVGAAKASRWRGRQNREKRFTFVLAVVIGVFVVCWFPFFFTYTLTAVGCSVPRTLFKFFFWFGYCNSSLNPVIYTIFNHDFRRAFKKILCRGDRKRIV

Test [2] addresses T2, Muscarinic acetylcholine receptor M2 (Homo sapiens, UniProt P08172).
T2 sequence (P08172 whole entry): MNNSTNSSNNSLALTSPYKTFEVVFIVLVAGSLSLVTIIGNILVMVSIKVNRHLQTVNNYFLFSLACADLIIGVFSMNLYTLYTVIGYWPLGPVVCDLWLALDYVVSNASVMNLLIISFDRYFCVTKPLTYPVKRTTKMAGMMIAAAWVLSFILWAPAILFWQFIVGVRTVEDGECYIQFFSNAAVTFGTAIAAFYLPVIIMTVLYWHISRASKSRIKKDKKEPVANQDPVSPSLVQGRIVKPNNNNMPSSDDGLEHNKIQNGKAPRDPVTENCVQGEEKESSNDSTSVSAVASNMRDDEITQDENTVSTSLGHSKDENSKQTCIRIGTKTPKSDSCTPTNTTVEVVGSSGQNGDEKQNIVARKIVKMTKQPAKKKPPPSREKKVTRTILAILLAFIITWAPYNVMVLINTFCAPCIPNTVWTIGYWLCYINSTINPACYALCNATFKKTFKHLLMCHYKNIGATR

Test [3] has as its target Voltage-gated inwardly rectifying potassium channel KCNH2 (Homo sapiens, UniProt Q12809). Type of test: functional. The note with it: read-out: AC50.
The target of test [4] is cGMP-inhibited 3',5'-cyclic phosphodiesterase 3A (Homo sapiens, UniProt Q14432). The test is classed as functional.
cGMP-inhibited 3',5'-cyclic phosphodiesterase 3A, sequence (Q14432 whole entry): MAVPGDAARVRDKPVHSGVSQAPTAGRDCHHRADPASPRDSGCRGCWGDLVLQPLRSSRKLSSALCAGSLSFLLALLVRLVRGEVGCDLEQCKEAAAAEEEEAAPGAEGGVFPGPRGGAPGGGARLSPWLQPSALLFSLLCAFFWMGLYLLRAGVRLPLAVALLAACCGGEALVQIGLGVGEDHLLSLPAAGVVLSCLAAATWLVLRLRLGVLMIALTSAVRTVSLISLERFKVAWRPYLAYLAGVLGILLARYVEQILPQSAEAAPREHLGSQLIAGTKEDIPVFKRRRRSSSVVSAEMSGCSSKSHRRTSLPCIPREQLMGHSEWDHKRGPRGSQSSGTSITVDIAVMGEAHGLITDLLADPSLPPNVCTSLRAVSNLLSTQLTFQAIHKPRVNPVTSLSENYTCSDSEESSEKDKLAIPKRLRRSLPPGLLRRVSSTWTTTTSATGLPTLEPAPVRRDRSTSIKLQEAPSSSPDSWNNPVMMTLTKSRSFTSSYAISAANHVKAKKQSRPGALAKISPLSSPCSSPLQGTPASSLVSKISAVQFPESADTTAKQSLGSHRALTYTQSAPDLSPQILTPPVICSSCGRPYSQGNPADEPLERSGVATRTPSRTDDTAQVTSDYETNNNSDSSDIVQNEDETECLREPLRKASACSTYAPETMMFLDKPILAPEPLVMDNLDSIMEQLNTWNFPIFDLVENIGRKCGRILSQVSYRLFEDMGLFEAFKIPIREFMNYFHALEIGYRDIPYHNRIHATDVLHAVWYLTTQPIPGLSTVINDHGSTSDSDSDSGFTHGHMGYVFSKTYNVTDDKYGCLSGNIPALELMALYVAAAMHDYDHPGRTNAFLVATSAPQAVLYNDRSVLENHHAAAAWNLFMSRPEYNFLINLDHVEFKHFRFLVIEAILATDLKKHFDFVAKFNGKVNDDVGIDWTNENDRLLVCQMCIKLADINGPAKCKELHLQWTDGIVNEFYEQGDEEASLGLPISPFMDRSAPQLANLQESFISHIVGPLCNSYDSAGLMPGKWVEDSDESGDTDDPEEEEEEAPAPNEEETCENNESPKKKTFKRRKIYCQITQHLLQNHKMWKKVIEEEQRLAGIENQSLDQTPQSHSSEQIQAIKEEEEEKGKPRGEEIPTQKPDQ
Another test deals with T3, Progesterone receptor (Homo sapiens, UniProt P06401).
T3 sequence (P06401 whole entry): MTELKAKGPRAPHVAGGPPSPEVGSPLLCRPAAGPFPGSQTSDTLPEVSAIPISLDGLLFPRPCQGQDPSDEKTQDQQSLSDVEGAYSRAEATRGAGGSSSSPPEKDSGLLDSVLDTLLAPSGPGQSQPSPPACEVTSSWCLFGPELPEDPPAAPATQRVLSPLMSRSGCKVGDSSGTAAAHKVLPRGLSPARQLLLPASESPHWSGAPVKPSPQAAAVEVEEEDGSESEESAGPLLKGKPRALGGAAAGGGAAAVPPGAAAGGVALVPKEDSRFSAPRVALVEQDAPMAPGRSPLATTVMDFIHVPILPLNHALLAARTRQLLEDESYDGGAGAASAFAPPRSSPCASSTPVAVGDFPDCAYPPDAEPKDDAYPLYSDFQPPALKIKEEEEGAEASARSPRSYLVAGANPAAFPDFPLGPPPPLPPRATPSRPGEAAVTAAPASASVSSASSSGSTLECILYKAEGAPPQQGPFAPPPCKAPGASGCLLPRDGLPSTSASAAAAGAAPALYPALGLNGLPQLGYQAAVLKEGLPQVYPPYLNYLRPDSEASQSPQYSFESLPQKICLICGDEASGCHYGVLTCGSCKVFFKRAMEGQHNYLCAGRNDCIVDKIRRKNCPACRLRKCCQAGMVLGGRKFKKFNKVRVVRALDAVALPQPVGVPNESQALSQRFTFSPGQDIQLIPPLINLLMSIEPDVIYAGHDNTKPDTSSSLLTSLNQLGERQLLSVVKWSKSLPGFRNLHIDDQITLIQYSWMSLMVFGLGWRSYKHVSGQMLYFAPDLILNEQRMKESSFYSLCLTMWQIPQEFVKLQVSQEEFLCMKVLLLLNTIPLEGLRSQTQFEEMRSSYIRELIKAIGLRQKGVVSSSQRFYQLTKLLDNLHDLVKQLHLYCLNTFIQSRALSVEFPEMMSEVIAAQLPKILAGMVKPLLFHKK

For test [5], the target named is Prostaglandin G/H synthase 1 (Homo sapiens, UniProt P23219). The test is classed as functional.
Prostaglandin G/H synthase 1, sequence (P23219 whole entry): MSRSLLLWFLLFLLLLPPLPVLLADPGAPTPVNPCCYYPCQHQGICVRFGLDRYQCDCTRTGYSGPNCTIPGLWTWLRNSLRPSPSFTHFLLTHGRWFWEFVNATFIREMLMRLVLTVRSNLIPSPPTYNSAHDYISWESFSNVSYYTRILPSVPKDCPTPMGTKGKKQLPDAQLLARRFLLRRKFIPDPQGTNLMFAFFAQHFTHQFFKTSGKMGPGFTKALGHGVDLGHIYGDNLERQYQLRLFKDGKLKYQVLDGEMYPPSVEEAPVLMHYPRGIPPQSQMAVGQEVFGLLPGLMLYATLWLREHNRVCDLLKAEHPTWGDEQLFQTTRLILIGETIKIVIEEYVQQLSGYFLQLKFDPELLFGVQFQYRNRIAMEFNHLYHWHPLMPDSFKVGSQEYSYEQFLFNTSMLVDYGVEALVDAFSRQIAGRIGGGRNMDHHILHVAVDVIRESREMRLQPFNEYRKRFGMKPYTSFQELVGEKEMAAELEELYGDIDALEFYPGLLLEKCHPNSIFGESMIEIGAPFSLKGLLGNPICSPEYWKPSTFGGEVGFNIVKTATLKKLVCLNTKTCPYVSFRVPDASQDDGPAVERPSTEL
The target in test [6] is Sodium-dependent noradrenaline transporter (Homo sapiens, UniProt P23975).
Sodium-dependent noradrenaline transporter, sequence (P23975 whole entry): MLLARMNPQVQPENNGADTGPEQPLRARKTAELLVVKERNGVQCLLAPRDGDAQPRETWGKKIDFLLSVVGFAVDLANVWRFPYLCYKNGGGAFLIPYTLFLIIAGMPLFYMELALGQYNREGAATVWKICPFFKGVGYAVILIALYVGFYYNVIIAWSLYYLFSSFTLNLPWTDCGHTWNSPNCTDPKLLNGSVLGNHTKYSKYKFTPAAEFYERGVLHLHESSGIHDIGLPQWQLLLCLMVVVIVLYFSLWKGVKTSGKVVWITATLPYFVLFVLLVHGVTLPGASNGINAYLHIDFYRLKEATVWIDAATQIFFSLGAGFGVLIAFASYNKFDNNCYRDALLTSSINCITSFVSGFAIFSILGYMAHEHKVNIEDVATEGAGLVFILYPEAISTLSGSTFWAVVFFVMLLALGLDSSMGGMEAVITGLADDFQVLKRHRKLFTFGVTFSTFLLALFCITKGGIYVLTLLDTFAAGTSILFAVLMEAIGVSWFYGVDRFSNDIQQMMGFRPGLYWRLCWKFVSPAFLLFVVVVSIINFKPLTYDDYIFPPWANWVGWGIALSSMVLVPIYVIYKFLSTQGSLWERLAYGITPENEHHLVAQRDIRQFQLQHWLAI
Test [7] deals with Sodium-dependent dopamine transporter (Homo sapiens, UniProt Q01959).
Sodium-dependent dopamine transporter, sequence (Q01959 whole entry): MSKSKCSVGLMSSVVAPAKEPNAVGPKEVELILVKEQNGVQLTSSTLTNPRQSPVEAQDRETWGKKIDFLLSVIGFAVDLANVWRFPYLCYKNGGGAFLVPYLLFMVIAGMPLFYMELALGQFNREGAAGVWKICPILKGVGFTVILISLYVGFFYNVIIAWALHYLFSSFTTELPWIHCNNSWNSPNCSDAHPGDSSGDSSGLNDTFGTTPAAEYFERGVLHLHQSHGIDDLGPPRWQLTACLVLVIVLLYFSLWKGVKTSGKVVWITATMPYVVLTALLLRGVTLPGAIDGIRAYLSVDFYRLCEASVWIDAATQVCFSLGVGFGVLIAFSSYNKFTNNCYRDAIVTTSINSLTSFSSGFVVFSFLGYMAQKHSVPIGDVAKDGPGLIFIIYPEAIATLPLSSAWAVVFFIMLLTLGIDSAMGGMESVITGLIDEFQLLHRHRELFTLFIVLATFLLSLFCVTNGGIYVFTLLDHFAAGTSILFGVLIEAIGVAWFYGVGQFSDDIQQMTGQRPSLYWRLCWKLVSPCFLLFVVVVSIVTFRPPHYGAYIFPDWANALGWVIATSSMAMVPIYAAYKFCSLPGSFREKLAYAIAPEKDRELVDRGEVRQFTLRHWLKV
In test [8] the target is Sodium-dependent serotonin transporter (Homo sapiens, UniProt P31645).
In the next test the target is T4, Thromboxane A2 receptor (Homo sapiens, UniProt P21731).
T4 sequence (P21731 whole entry): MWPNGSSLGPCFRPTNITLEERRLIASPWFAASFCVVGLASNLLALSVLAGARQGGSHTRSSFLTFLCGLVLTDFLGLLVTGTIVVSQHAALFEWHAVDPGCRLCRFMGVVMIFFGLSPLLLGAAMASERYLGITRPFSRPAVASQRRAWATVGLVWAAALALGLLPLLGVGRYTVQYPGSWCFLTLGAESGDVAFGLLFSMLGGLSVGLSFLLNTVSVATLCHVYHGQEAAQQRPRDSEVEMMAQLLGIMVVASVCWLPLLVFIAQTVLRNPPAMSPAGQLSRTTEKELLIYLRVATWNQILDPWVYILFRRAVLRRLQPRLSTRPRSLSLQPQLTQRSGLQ
Type of test: functional, cell-based.
Note: assay procedure not described here.

Acetylcholinesterase, sequence (P22303 whole entry): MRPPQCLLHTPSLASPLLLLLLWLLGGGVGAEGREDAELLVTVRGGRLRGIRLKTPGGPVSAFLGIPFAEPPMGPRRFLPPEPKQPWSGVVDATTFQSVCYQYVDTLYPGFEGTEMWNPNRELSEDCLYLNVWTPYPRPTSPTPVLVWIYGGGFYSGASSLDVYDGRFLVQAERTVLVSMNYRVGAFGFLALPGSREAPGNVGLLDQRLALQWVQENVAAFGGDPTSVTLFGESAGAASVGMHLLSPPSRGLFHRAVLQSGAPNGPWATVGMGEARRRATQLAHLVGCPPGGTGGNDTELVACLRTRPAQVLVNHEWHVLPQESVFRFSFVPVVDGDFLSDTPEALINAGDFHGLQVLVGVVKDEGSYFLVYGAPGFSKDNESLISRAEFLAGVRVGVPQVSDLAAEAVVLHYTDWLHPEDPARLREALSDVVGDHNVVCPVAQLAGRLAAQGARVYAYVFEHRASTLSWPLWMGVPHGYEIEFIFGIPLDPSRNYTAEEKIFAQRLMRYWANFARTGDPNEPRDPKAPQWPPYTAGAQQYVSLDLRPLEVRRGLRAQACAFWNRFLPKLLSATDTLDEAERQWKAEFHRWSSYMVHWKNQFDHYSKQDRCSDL
Voltage-gated inwardly rectifying potassium channel KCNH2, sequence (Q12809 whole entry): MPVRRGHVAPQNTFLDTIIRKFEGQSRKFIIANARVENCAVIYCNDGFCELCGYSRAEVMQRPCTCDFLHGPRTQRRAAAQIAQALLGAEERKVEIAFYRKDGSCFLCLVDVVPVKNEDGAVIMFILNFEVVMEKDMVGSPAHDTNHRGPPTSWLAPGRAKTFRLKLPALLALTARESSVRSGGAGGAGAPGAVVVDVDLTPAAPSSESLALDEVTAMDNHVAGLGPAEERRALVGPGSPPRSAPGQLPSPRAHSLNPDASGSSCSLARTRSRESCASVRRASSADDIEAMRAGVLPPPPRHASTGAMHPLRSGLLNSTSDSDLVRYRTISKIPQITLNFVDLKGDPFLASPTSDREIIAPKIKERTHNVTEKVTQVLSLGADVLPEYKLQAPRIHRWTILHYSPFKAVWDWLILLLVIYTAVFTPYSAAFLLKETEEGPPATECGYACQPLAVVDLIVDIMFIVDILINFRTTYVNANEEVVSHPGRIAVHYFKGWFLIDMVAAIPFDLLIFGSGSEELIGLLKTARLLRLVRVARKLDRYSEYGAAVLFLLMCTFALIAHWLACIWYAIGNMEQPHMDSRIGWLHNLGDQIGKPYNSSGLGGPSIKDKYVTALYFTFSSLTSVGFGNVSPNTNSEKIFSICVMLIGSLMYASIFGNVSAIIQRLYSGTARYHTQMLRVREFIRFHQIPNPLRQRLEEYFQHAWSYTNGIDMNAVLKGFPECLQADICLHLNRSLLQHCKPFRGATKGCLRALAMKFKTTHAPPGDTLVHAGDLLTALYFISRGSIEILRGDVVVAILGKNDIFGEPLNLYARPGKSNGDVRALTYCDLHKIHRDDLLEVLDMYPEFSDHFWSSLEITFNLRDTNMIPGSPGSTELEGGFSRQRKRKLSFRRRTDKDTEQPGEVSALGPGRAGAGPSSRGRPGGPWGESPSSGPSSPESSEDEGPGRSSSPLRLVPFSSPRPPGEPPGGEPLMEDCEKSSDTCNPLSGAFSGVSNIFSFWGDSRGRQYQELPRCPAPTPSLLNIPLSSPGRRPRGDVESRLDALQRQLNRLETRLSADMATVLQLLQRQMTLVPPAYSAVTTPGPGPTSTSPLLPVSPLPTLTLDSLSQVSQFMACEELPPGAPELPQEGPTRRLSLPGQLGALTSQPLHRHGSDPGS

With `O=C(Nc1nc(-c2cc(Cl)cs2)c(N2CCN(C3CCCCC3)CC2)s1)c1cnc(N2CCC(C(=O)O)CC2)c(Cl)c1` [AVATROMBOPAG], the AC50 on Acetylcholinesterase was above 30 µM; in [1] it was above 30 µM; in [2] it was above 30 µM; in [3] it was 12.4 µM; in test [4] it was above 30 µM; on Progesterone receptor, above 30 µM. In addition, the AC50 was 19.8 µM in [5]; above 30 µM in test [6]; above 30 µM in test [7]; above 30 µM in test [8]; above 10 µM at Thromboxane A2 receptor.

As for `COC(=O)C1=C(C)NC(C)=C(C(=O)O[C@H]2CCN(Cc3ccccc3)C2)[C@H]1c1cccc([N+](=O)[O-])c1` [BARNIDIPINE], the half-maximal activity concentration (AC50) on Acetylcholinesterase was above 30 µM; in [1], 6.54 µM; in test [2] it was 2.35 µM; in [3], 1.8 µM; in [4], above 30 µM; at Progesterone receptor, 5.55 µM. Also, the AC50 in test [5] was above 30 µM; in test [6], 0.635 µM; in [7], 1.9 µM; in test [8], 13.6 µM; at Thromboxane A2 receptor, 4.47 µM.

Take `C[C@@H](O)[C@H]1C(=O)N2C(C(=O)[O-])=C(SC3Cn4cnc[n+]4C3)[C@H](C)[C@H]12` (stereo partly specified) [BIAPENEM]: the AC50 (at Acetylcholinesterase; in test [1]; in test [2]; in test [3]; in test [4]; on Progesterone receptor) was above 30 µM in each case. In addition, the AC50 (in test [5]; in [6]; in [7]; in [8]; on Thromboxane A2 receptor) was above 30 µM in each case.

In the case of `CCCCOc1ccc(CC(=O)NO)cc1` [BUFEXAMAC], the AC50 (at Acetylcholinesterase; in test [1]; in [2]; in test [3]; in test [4]; at Progesterone receptor) was above 30 µM each time. Further, the half-maximal activity concentration (AC50) (in test [5]; in test [6]; in test [7]; in test [8]; at Thromboxane A2 receptor) was above 30 µM throughout.

For the molecule `CO/N=C(\C(=O)N[C@@H]1C(=O)N2C(C(=O)[O-])=C(C[n+]3cccc4c3CCC4)CS[C@H]12)c1csc(N)n1` [CEFPIROME], the AC50 (on Acetylcholinesterase; in test [1]; in test [2]; in [3]; in test [4]; at Progesterone receptor) was above 30 µM each time. The AC50 (in [5]; in test [6]; in [7]; in test [8]; at Thromboxane A2 receptor) was above 30 µM each time.

Turning to `Nc1ncnc(Nc2ccc(Cl)cc2)n1` [CHLORAZANIL], the AC50 (at Acetylcholinesterase; in [1]; in test [2]; in [3]; in [4]; at Progesterone receptor) was above 30 µM each time. Also, the AC50 is above 30 µM in [5]; 5.4 µM in test [6]; above 30 µM in [7]; above 30 µM in test [8]; above 30 µM on Thromboxane A2 receptor.

For `CCC[C@@H]1C[C@@H](C(=O)N[C@@H]([C@H]2O[C@H](SC)[C@H](OP(=O)(O)O)[C@@H](O)[C@H]2O)[C@H](C)Cl)N(C)C1` [CLINDAMYCIN PHOSPHATE], the AC50 (at Acetylcholinesterase; in test [1]; in test [2]; in test [3]; in [4]; at Progesterone receptor) was above 30 µM in each case. Also, the AC50 (in [5]; in [6]; in [7]; in test [8]; on Thromboxane A2 receptor) was above 30 µM each time.

Consider `Oc1c(I)cc(Cl)c2cccnc12` [CLIOQUINOL], for which the AC50 (at Acetylcholinesterase; in [1]; in [2]; in test [3]; in test [4]; at Progesterone receptor) was above 30 µM in each case. For the same molecule, the AC50 in [5] was above 30 µM; in test [6], 2.79 µM; in test [7] it was above 30 µM; in test [8], above 30 µM; on Thromboxane A2 receptor, above 10 µM.

As for `Cc1onc(-c2c(Cl)cccc2Cl)c1C(=O)N[C@@H]1C(=O)N2[C@@H]1SC(C)(C)[C@@H]2C(=O)O` [DICLOXACILLIN], the AC50 (on Acetylcholinesterase; in [1]; in test [2]; in [3]; in [4]; at Progesterone receptor) was above 30 µM in each case. Besides, the AC50 (in [5]; in [6]; in test [7]; in test [8]; at Thromboxane A2 receptor) was above 30 µM throughout.

Consider `C[C@@H](O)[C@H]1C(=O)N2C(C(=O)O)=C([C@H]3CCCO3)S[C@H]12` [FAROPENEM], for which the AC50 (at Acetylcholinesterase; in [1]; in test [2]; in test [3]; in [4]; on Progesterone receptor) was above 30 µM in each case. Moreover, the AC50 is 14.7 µM in test [5]; above 30 µM in test [6]; above 30 µM in test [7]; above 30 µM in test [8]; above 30 µM at Thromboxane A2 receptor.

In the case of `CCOC(=O)c1ccc(OC(=O)CCCCCNC(=N)N)cc1` [GABEXATE], the AC50 at Acetylcholinesterase was above 30 µM; in test [1] it was above 30 µM; in test [2] it was 1.49 µM; in [3], 25 µM; in test [4], above 30 µM; at Progesterone receptor it was above 30 µM. In addition, the AC50 in [5] is above 30 µM; in test [6], 9.03 µM; in [7], 14.8 µM; in [8], above 30 µM; on Thromboxane A2 receptor, above 30 µM.

A word on the AC50: it is the concentration at which the activity in the assay is half-maximal.
